According to patent US20220378744A1, “COMPOUNDS FOR TREATING PROLIFERATOR-ACTIVATED RECEPTORS (PPAR) MEDIATED DISEASES OR CONDITIONS” (MEDIPURE PHARMACEUTICALS INC., priority 2021, published 2022):

How the values were obtained:
[1] = tested on: IMQ-induced psoriasis in BALB/c mice; assay: IMQ-induced psoriasis model in BALB/c mice, topical creams, PASI score; format: in vivo
Experimental: The animal experiment is conducted in accordance with the Guidelines for the Institutional Animal Care and Use Committee. Both male and female BALB/c mice from Rodenta Bioserve, India, at 7-8 weeks of age and 20-25 gram of body weight are housed in a laboratory environment with constant temperature (24.0±1.0° C.) and relative humidity (45.0-55.0%) on a 12 h light/dark cycles. These animals are provided free access to unlimited amounts of food and water during the entire experiment. The animals are divided into 12 groups of 8 mice each and shaved on the back on day 0 for an area of 2×2 cm . Human-like psoriasis in mice is induced by topical application of 5% Imiquimod (IMQ) procured from AK Scientific, USA, and formulated in the base cream at desired percentages in-house, in shaved area and right ear (0.5×0.5 cm). […] Vehicle, clobetasol propionate (CP, Sigma. 0.05% w/w; positive control), test creams, and CBD (Ilesol Pharmaceuticals), respectively, is applied topically on both the shaved back (80 mg cream) and the right ear (20 mg cream) of mice, once daily from day 10 to day 16. The study ends at day 17. At stated time points the severity of psoriasis is evaluated using the PASI score (Psoriasis Area Severity Index: sum of erythema, scaling and thickening, scored independently from 0 to 4 for each mouse; max PASI score=12). Tissue and blood samples are collected for histopathology, biochemistry and immunoassay from each animal at various points.

human PPARα (NR1C1) = target: T1, human PPARα (NR1C1) (Homo sapiens, UniProt Q07869); assay: Cell-based human PPARα transactivation (nuclear receptor reporter) assay; settings: for PPARα transactivation: concentration at which (or starting at which) active: luciferase reporter cells, 24 h treatment, FIG. 1; for activating PPARα: at 10 μM
T1 sequence (Q07869 1-468): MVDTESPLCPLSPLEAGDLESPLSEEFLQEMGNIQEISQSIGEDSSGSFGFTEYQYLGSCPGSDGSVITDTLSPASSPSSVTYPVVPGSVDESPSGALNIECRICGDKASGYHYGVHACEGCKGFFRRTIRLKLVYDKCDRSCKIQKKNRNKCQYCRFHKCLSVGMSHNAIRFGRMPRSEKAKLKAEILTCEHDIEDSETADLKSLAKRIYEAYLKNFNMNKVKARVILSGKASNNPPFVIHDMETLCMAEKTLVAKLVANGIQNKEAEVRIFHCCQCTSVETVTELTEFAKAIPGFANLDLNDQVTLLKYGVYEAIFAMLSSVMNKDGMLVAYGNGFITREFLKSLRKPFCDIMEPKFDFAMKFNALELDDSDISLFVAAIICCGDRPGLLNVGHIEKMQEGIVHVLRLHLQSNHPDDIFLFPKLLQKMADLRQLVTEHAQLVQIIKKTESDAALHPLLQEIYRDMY
Experimental: (§1) The assay was performed using cell-based human PPAR nuclear receptor reporter assay kits (NR1C1 for PPARα; NR1C2 for PPARδ/β, and NR1C3 for PPARγ, Indigo Biosciences) by following the manufacturer's instruction. In brief, PPAR reporter cells were added to CRM medium (Indigo Biosciences), seeded into wells of a 96-well culture plate and incubated for 5 hours in a cell culture incubator at 37° C. with 5% CO2. The medium was then removed, and the cells were treated with test compounds at different concentrations in CSM medium (Indigo Biosciences) for 24 h inside the incubator. […] DMSO (Sigma) at 0.1% (v/v) was used as negative baseline control (C). Each treatment was tested in duplicate wells. At the end point of the experiments, the treatment medium was discarded and Luciferase Detection Reagent (Indigo Biosciences) was added. Following a 10-minute rest period, the intensity of light emission (in units of “Relative Light Units; RLU”) from each assay well was quantified using a plate-reading luminometer (Synergy H1 plate reader, BioTek). In addition, live cell multiplex assay (Indigo Biosciences) was combined with the activation assays to detect potential cytotoxic effect, if any, of the test chemicals to normalize the signals as per manufacturer's instruction.

human PPARγ (NR1C3) = target: T2, human PPARγ (NR1C3) (Homo sapiens, UniProt P37231); assay: Cell-based human PPARγ transactivation (nuclear receptor reporter) assay; settings: for activating PPARγ: at 1 μM
T2 sequence (P37231 1-505): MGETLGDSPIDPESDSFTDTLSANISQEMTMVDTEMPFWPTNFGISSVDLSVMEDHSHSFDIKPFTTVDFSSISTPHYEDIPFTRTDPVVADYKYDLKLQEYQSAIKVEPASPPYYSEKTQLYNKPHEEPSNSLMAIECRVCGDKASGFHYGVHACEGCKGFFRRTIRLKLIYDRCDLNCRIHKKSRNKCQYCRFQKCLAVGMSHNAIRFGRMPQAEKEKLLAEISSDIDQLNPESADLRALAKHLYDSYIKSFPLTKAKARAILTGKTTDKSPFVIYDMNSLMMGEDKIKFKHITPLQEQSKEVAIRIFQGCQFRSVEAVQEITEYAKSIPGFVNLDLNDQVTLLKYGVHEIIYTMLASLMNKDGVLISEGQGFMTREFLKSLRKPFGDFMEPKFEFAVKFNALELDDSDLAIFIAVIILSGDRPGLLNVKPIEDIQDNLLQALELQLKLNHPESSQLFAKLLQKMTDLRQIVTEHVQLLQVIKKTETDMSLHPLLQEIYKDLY
Experimental: as §1

[2] = tested on: LPS-stimulated HaCaT cells; assay: Anti-inflammatory effect, LPS-stimulated HaCaT cell model (IL-6, IL-8 ELISA); format: cell-based, human; settings: LPS 20 μg/mL, 24 h
Experimental: (§2) Three in vitro models based on HaCaT cell culture were tested. HaCaT cells were maintained as described above in DMEM high glucose (4.5g/L) medium supplemented with 10% FBS and 1% (v/v) penicillin/streptomycin solution (Invitrogen, Thermo Fisher) and kept in an incubator at 37° C. with 5% CO2. For experiments, the cells were seeded at 5×10^4 cells/well in 1 mL of medium to a 24-well culture plate (Nunc, Thermo Fisher) and incubated overnight.
(§3) (1) For the imiquimod (IMQ)-stimulated HaCaT model, IMQ (Alfa Aesar) at 50 μM final concentration was used in the experiments; (2) for TNFα/IL-17A-stimulated-HaCaT model, 2 ng/mL of each cytokine (R&D Systems) was used; and (3) for the lipopolysaccharide (LPS, Sigma) simulated HaCaT cell model, 20 μg/mL LPS was used. For drug chemical treatment the old medium in the culture plates described above was discarded and the corresponding stimulant (IMQ, TNFα/IL-17A, or LPS) with or without test chemicals in 0.5 mL fresh medium was added to each cell well. There were duplicate wells for each treatment. The plate was incubated for another 24 h and the supernatant was collected for cytokine analysis, namely IL-6 and IL-8, using the corresponding ELISA kits (Thermo Fisher). The experiments were repeated independently to confirm the observation.

[3] = tested on: IMQ-stimulated HaCaT cells; assay: Anti-inflammatory effect, IMQ-stimulated HaCaT cell model (IL-6, IL-8 ELISA); format: cell-based, human; settings: IMQ 50 μM, 24 h, vs control
Experimental: as §2
as §3, with “Fisher).” for “Fisher). The experiments were repeated independently to confirm the observation.”

| PPARα transactivation: concentration at which (or starting at which) active (human PPARα (NR1C1)) [µM] | activating PPARγ (human PPARγ (NR1C3)) | activating PPARα (human PPARα (NR1C1)) | Compound | further results |
| --- | --- | --- | --- | --- |
| – | – | – | CCC(=O)O[C@]1(C(=O)CCl)[C@@H](C)C[C@H]2[C@@H]3CCC4=CC(=O)C=C[C@]4(C)[C@@]3(F)[C@@H](O)C[C@@]21C [CP, clobetasol propionate, reference compound] | reducing the PASI score ([1]; 0.05% w/w cream, once daily day 10 to day 16, FIG. 11): effective |
| 0.001 | – | – | Cc1nc(-c2ccc(C(F)(F)F)cc2)sc1C(=O)NCc1ccc(OC(C)(C)C(=O)O)cc1 [GW590375, reference compound] | – |
| – | highly effective | not effective | CCCc1cc(C(=O)c2ccc(-c3ccccc3)cc2)ccc1OCCOc1ccc2c(cnn2C(OCC)C(=O)O)c1 (stereo not drawn) [KV 196, 2-(5-(2-(4-([1,1′-biphenyl]-4-carbonyl)-2-propylphenoxy)ethoxy)-1H-indazol-1-yl)-2-ethoxyacetic acid] | – |
| – | highly effective | not effective | CCCc1cc(C(=O)c2ccc(F)cc2)ccc1OCCCOc1ccc2c(cnn2C(OCC)C(=O)OC)c1 (stereo not drawn) [KV-157, methyl 2-ethoxy-2-(5-(3-(4-(4-fluorobenzoyl)-2 propylphenoxy)propoxy)-1H-indazol-1-yl)acetate] | – |
| – | highly effective | not effective | CCCc1cc(C(=O)c2ccc(F)cc2)ccc1OCCOc1ccc2c(cnn2C(OCC)C(=O)OCC)c1 (stereo not drawn) [KV-163A, ethyl 2-ethoxy-2-(5-(2-(4-(4-fluorobenzoyl)-2-propylphenoxy)ethoxy)-1H-indazol-1-yl)acetate] | – |
| – | highly effective | not effective | CCCc1cc(C(=O)c2ccc(-c3ccccc3)cc2)ccc1OCCCOc1ccc2c(cnn2C(OCC)C(=O)OCC)c1 (stereo not drawn) [KV-165, ethyl 2-(5-(3-(4-([1,1′-biphenyl]-4-carbonyl)-2-propylphenoxy)propoxy)-1H-indazol-1-yl)-2-ethoxyacetate] | – |
| – | highly effective | not effective | CCCc1cc(C(=O)c2ccc(-c3ccccc3)cc2)ccc1OCCCOc1ccc2c(cnn2C(OCC)C(=O)O)c1 (stereo not drawn) [KV-180, 2-(5-(3-(4-([1.1′-biphenyl]-4-carbonyl)-2-propylphenoxy)propoxy)-1H-indazol-1-yl)-2-ethoxyacetic acid] | – |
| – | – | not effective | CCCc1cc(C(=O)c2ccc(F)cc2)ccc1OCCOc1ccc2c(cnn2C(OCC)C(=O)O)c1 (stereo not drawn) [KV-192, 2-ethoxy-2-(5-(2-(4-(4-fluorobenzoyl)-2-propylphenoxy)ethoxy)-1H-indazol-1-yl)acetic acid] | concentration at which PPARγ was activated (human PPARγ (NR1C3)): 10 µM |
| – | highly effective | not effective | CCCc1cc(C(=O)c2ccc(-c3ccccc3)cc2)ccc1OCCOc1ccc2c(cnn2C(OCC)C(=O)OCC)c1 (stereo not drawn) [KV-194A, Ethyl 2-(5-(2-(4-([1,1,′-biphenyl]-4-carbonyl)-2-propylphenoxy)ethoxy)-1H-indazol-1-yl)-2-ethoxyacetate] | – |
| 5 | – | – | CCCc1cc(C(=O)c2ccc(-c3ccccc3)cc2)ccc1OCCCOc1ccc2c(cnn2CC(=O)OC)c1 [MP-153, methyl 2-(5-(3-(4-([1,1′-biphenyl]-4-carbonyl)-2-propylphenoxy)propoxy)-1H-indazol-1-yl)acetate] | production of IL-6 ([3]; compound at 2.5 μM): significantly inhibited; production of IL-6 ([3]; compound at 25 μM): significantly inhibited |
| 1 | – | – | CCCc1cc(C(=O)c2ccc(F)cc2)ccc1OCCCOc1ccc2c(cnn2CC(=O)O)c1 [MP-154, 2-(5-(3-(4-(4-fluorobenzoyl)-2-propylphenoxy)propoxy)-1H-indazol-1-yl)acetic acid] | PPARγ transactivation: concentration at which (or starting at which) active (human PPARγ (NR1C3); FIG. 3): 1,000 nM; production of IL-6 ([3]; compound at 2.5 μM): no anti-inflammatory effect; production of IL-6 ([3]; compound at 25 μM): significantly inhibited |

| Compound | PPARα transactivation: concentration at which (or starting at which) active (human PPARα (NR1C1)) [µM] | activating PPARγ (human PPARγ (NR1C3)) | activating PPARα (human PPARα (NR1C1)) | further results |
| --- | --- | --- | --- | --- |
| CCCc1cc(C(=O)c2ccc(-c3ccccc3)cc2)ccc1OCCCOc1ccc2c(cnn2CC(=O)O)c1 [MP-151, 2-(5-(3-(4-([1,1′-biphenyl]-4-carbonyl)-2-propylphenoxy)propoxy)-1H-indazol-1-yl)acetic acid] | 5 | – | – | reduction of IL-8 production compared with rosiglitazone and fenofibrate ([2]; 25 μM): more active; production of IL-6 ([2]; compound at 25 uM): reduced; tolerability in mice ([1]; topical, seven-day consecutive treatment, even at 10% creams): well tolerated; visual damage on the skin ([1]; topical, seven-day consecutive treatment, up to 10% creams): No visual damage; production of IL-6 ([3]; compound at 2.5 μM): significantly inhibited; production of IL-6 ([3]; compound at 25 μM): significantly inhibited |
